Experimental data from patent US10561681B2, “Antimetastatic 2H-selenopheno[3,2-h]chromenes, synthesis thereof, and methods of using same agents” (Latvian Institute of Organic Synthesis, priority 2016, dated 2020).
“And” between values parts separate entries of the source, which are not always exact repeats. Identical values can stand only once. Like-named read-outs stand apart in the source and are kept apart here.

What was measured:
Assay type in all cases: cell-based
[1] = Basal cytotoxicity test, Neutral Red Uptake (NRU) assay; conditions: for LD50 at 24 h: mouse, po, acute oral LD50 calculated from 3T3 NRU IC50 by regression formula, read-out: Basal cytotoxicity Estimated* LD50; for IC50 at 24 h: normal mouse embryo fibroblasts, read-out: Cytotoxicity IC50, 3T3
Procedure: In parallel, the borderline concentration relevant to the highest tolerated dose has been determined for each compound using the NIH 3T3 (mouse embryo fibroblasts) cell line and the basal cytotoxicity obtained has then been used to predict the starting doses for in vivo acute oral LD50 values in rodents.
the Neutral Red Uptake (NRU) assay was performed according to the standard protocol of Stokes modified by the NICEATM-ECVAM validation study. The NRU cytotoxicity assay procedure is based on the ability of viable cells to incorporate and bind Neutral Red, a supravitally dye. Balb/c 3T3 (Mouse Swiss Albino embryo fibroblast) cells (9000 cells/well) were placed into 96-well plates for 24 h in Dulbecco's modified Eagle's (DMEM) medium containing 5% fetal bovine serum. The cells were then exposed to the test compounds over a range of […] concentrations (1000, 316, 100, 31, 10, 3, 1 μg/ml) for 24 h. Untreated cells were used as a control. After 24 h, the medium was removed from all plates. Then, 250 μL of Neutral Red solution were added (0.05 mg/mL NR in DMEM 24 h pre-incubated at 37° C. and then filtered before use through 0.22-μm syringe filter). Plates were incubated for 3 h and then cells were washed three times with PBS. The dye within viable cells was released by extraction with a mixture of acetic acid, ethanol and water (1:50:49). Absorbance of Neutral Red was measured using a spectrophotometer multiplate reader (TECAN, Infinite M1000) at 540 nm. The percentage of living cells was calculated using the formula: OD (treated cells)*100/OD (control cells). The IC50 values were calculated using the programme Graph Pad Prism® 3.0.
Data from the in vitro tests were used for estimating the starting dose for acute oral systemic toxicity tests in rodents. […] The value is recalculated to mg/kg and compounds are evaluated in accordance with four toxicity categories: category 1: LD50≤5 mg/kg (highly toxic); category 2: 5<LD50≤50 mg/kg (moderately toxic); category 3: 50<LD50≤300 mg/kg (slightly toxic); category 4: 300<LD50≤2 000 mg/kg (practically non-toxic).

[2] = tested on: MES-SA (human uterus sarcoma); assay: In vitro cytotoxicity, MTT test; conditions: 72 h, read-out: Cytotoxicity IC50, MES-SA
Procedure: (§1) Anticancer activity of selenopheno[h]chromenes was tested in vitro using cytotoxicity assay. […] About 2-9·10^4 cells/mL (depending on line nature) were placed in 96-well plates immediately after compounds were added to the wells. Untreated cells were used as a control. The plates were incubated for 72 h, 37° C., 5% CO2. The number of surviving cells was determined using 3-(4,5-dimethylthiazol-2-yl)-2,5-diphenyltetrazolinium bromide (MTT). MTT-test: after incubating culture medium was removed and 200 μL fresh medium with 10 mM HEPES was added in each well of the plate, than 20 μL MTT (2 mg/mL in HBSS) was added. After incubation (3 hr, 37° C., 5% CO2), the medium with MTT was removed and 200 μL DMSO were added at once to each sample. The samples were tested at 540 nm on Anthos HT II photometer.

[3] = tested on: MDA-MB-435s (human melanoma); assay: In vitro cytotoxicity, MTT test; conditions: 72 h, read-out: Cytotoxicity IC50, MDA-MB-435s
Procedure: as §1

[4] = tested on: MCF-7 (human breast adenocarcinoma, estrogen-positive); assay: In vitro cytotoxicity, MTT test; conditions: read-out: Cytotoxicity IC50, MCF-7
Procedure: as §1

[5] = tested on: HT-1080 (human fibrosarcoma); assay: In vitro cytotoxicity, MTT test; conditions: read-out: Cytotoxicity IC50, HT-1080
Procedure: as §1

CCL-8 (mouse sarcoma) = assay: In vitro cytotoxicity, MTT test; conditions: 72 h, read-out: Cytotoxicity IC50, CCL-8
Procedure: as §1

MG-22A (mouse hepatoma) = assay: In vitro cytotoxicity, MTT test; conditions: 72 h, read-out: Cytotoxicity IC50, MG-22A
Procedure: as §1

[6] = tested on: HepG2 (human hepatocellular carcinoma); assay: In vitro cytotoxicity, MTT test; conditions: read-out: Cytotoxicity IC50, HepG2
Procedure: as §1

[7] = tested on: SH-SY5Y (human neuroblastoma); assay: In vitro cytotoxicity, MTT test; conditions: 72 h, read-out: Cytotoxicity IC50, SHSY5Y
Procedure: as §1

[8] = tested on: A549 (human lung carcinoma); assay: In vitro cytotoxicity, MTT test; conditions: read-out: Cytotoxicity IC50, A549
Procedure: as §1

[9] = Homo sapiens, A549, 72 h, MTT, 72 h

Structure (SMILES) | LD50 at 24 h [1] | IC50 at 24 h [1] [µM] | IC50 ([2]; MTT) [µM] | IC50 ([3]; MTT) [µM] | IC50 ([4]; MCF7, MTT, 72 h) [µM] | IC50 ([5]; HT-1080, MTT, 72 h) [µM] | IC50 (CCL-8 (mouse sarcoma); MTT) [µM] | IC50 (MG-22A (mouse hepatoma); MTT) [µM] | IC50 ([6]; HepG2, MTT, 72 h) [µM] | IC50 ([7]; Homo sapiens, SH-SY5Y, MTT) [µM] | IC50 [8, 9] [µM] | other results
COC(=O)c1cc2ccc3c(Br)c(C(C)(C)O)[se]c3c2oc1=O [Compound I-1, Methyl 7-bromo-8-(2-hydroxypropan-2-yl)-2-oxo-2H-selenopheno[3,2-h]chromene-3-carboxylate] | > 6000 µmol/kg and > 2660 mg/kg | 225 ± 11 | 95 ± 9 | 95 ± 8 | 221 ± 13 | 225 ± 11 | > 225 | > 122 | > 117 | 32 | 196 ± 9 | –
COC(=O)c1cc2ccc3c(Br)c(C4=CCCC4)[se]c3c2oc1=O [Compound I-2, Methyl 7-bromo-8-(cyclopent-1-en-1-yl)-2-oxo-2H-selenopheno[3,2-h]chromene-3-carboxylate] | 500 µmol/kg and 194 mg/kg | > 235 | 155 ± 3 | 142 ± 12 | 281 ± 12 | 110 ± 12 | 82 ± 8 | > 235 | 197 ± 24 | > 117 | 122 ± 8 | –
COC(=O)c1cc2ccc3c(Br)c(C4(O)CCCCC4)[se]c3c2oc1=O [Compound I-3, Methyl 7-bromo-8-(1-hydroxycyclohexyl)-2-oxo-2H-selenopheno[3,2-h]chromene-3-carboxylate] | > 5600 µmol/kg | 207 ± 9 | 66 ± 3 | 64 ± 6 | 29 ± 2 | 27 ± 1 | 186 ± 9 | 33 ± 6 | > 117 | ≤ 19 | ≤ 19 | IC50 ([7]; MTT): 19 ± 3 µM; IC50 ([8]; MTT, 72 h): 19 ± 2 µM
COC(=O)c1cc2ccc3c(Br)c(C4(OC)CCCCC4)[se]c3c2oc1=O [Compound I-4, Methyl 7-bromo-8-(1-methoxycyclohexyl)-2-oxo-2H-selenopheno[3,2-h]chromene-3-carboxylate] | 1100 µmol/kg and 548 mg/kg | 198 ± 2 | 201 ± 5 | 103 ± 4 | 46 ± 14 | 52 ± 5 | 95 ± 2 | 446 ± 6 | 103 ± 5 | > 117 | > 201 | –
CCCCCCCCCCOC(=O)c1cc2ccc3c(Br)c(C4(O)CCCCC4)[se]c3c2oc1=O [Compound I-7] | > 3300 µmol/kg and > 2000 mg/kg | > 164 | > 164 | 152 ± 9 | 48 ± 13 | > 164 | 81 ± 2 | > 164 | 151 ± 6 | > 117 | > 164 | –
COC(=O)c1cc2ccc3c(Br)c(CN4CCCCC4)[se]c3c2oc1=O [Compound I-8, Methyl 7-bromo-2-oxo-8-(piperidin-1-ylmethyl)-2H-selenopheno[3,2-h]chromene-3-carboxylate] | > 3900 µmol/kg and > 2000 mg/kg | 54 ± 3 | > 117 | > 192 | 165 ± 5 | > 192 | > 122 | 46 ± 3 | 181 ± 9 | > 192 | 115 ± 8 | –
COC1(c2[se]c3c(ccc4cc(C(=O)O)c(=O)oc43)c2Br)CCCCC1 [Compound I-12, 7-Bromo-8-(1-methoxycyclohexyl)-2-oxo-2H-selenopheno[3,2-h]chromene-3-carboxylic acid] | 300 µmol/kg and 134 mg/kg | 213 ± 7 | > 206 | 127 ± 12 | 141 ± 10 | 51 ± 2 | – | > 206 | 97 ± 7 | 193 ± 2 | 61 ± 1 | IC50 (CCL-8 (mouse sarcoma)): 134 ± 6 µM
Cl.O=C(O)c1cc2ccc3c(Br)c(CN4CCCCC4)[se]c3c2oc1=O [Compound I-13, 7-Bromo-2-oxo-8-(piperidin-1-ylmethyl)-2H-selenopheno[3,2-h]chromene-3-carboxylic acid hydrochloride] | 4300 µmol/kg and 2180 mg/kg | 197 ± 8 | – | – | – | – | – | – | – | – | – | IC50 [2]: 103 ± 9 µM; IC50 [3]: 182 ± 11 µM; IC50 ([4]; MCF7, 72 h): 119 ± 2 µM; IC50 ([5]; HT-1080, 72 h): 197 ± 3 µM; IC50 (CCL-8 (mouse sarcoma)): > 122 µM; IC50 (MG-22A (mouse hepatoma)): 49 ± 6 µM; IC50 ([6]; HepG2, 72 h): > 197 µM; IC50 ([7]; Homo sapiens, SH-SY5Y): > 197 µM; IC50 ([8]; Homo sapiens, A549, 72 h): 129 ± 6 µM
CCCCCCCCOC(=O)c1cc2ccc3c(Br)c(C4=CCCCC4)[se]c3c2oc1=O [Compound I-16, Octyl 7-bromo-8-(cyclohex-1-en-1-yl)-2-oxo-2H-selenopheno[3,2-h]chromene-3-carboxylate] | 876 mg/kg | > 177 | > 117 | > 122 | > 117 | > 117 | – | > 122 | > 177 | > 117 | > 117 | –
CC(C)CCC[C@@H](C)[C@H]1CC[C@H]2[C@@H]3CC=C4C[C@@H](OC(=O)c5cc6ccc7c(Br)c(C8=CCCCC8)[se]c7c6oc5=O)CC[C@]4(C)[C@H]3CC[C@]12C [Compound I-17, (3S,8S,9S,10R,13R,14S,17R)-10,13-Dimethyl-17-((R)-6-methylheptan-2-yl)-2,3,4,7,8,9,10,11,12,13,14,15,16,17-tetradecahydro-1H-cyclopenta[a]phenanthren-3-yl-7-bromo-8-(cyclohex-1-en-1-yl)-2-oxo-2H-selenopheno[3,2-h]chromene-3-carboxylate] | 3000 µmol/kg and 2450 mg/kg | > 117 | > 117 | – | > 117 | > 117 | – | – | > 117 | > 117 | > 117 | –
COC1(c2[se]c3c(ccc4cc(C(=O)O[C@H]5CC[C@@]6(C)C(=CC[C@H]7[C@@H]8CC[C@H]([C@H](C)CCCC(C)C)[C@@]8(C)CC[C@@H]76)C5)c(=O)oc43)c2Br)CCCCC1 [Compound I-18, (3S,8S,9S,10R,13R,14S,17R)-10,13-Dimethyl-17-((R)-6-methylheptan-2-yl)-2,3,4,7,8,9,10,11,12,13,14,15,16,17-tetradecahydro-1H-cyclopenta[a]phenanthren-3-yl-7-bromo-8-(1-methoxycyclohexyl)-2-oxo-2H-selenopheno[3,2-h]chromene-3-carboxylate] | 3700 µmol/kg and 3190 mg/kg | > 117 | > 117 | > 117 | > 117 | > 117 | > 117 | > 117 | > 117 | > 117 | > 117 | –
